{"source": "patent US6066628A", "about": "“Non-iron metalloporphyrins and methods of use” (Emory University, priority 1998, dated 2000)", "key": {"S. marcescens": {"system": "S. marcescens", "assay": "Disc diffusion sensitivity test", "assay_type": "cell-based, Serratia marcescens"}, "P. mirabills": {"system": "P. mirabills", "assay": "Disc diffusion sensitivity test", "assay_type": "cell-based, Proteus mirabilis"}, "E. aerogenes": {"system": "E. aerogenes", "assay": "Disc diffusion sensitivity test", "assay_type": "cell-based, Enterobacter aerogenes"}, "S. aureus": {"system": "S. aureus", "assay": "Disc diffusion sensitivity test", "assay_type": "cell-based, Staphylococcus aureus"}, "M tuber. H37Rv": {"system": "M tuber. H37Rv", "assay": "Disc diffusion sensitivity test", "assay_type": "cell-based, Mycobacterium tuberculosis", "settings": "disc ~50 μg MP"}, "Staphylococcus xylolus": {"system": "Staphylococcus xylolus", "assay": "Disc diffusion sensitivity test", "assay_type": "cell-based", "settings": "50 μg disc"}, "Y. enterocolitica": {"system": "Y. enterocolitica", "assay": "microbe, parasite or virus in culture", "assay_type": "cell-based"}, "M. smegmatis": {"system": "M. smegmatis", "assay_type": "cell-based, Mycobacterium smegmatis"}, "Y. pseudotuberculosis": {"system": "Y. pseudotuberculosis", "assay_type": "cell-based"}, "M. tuberculosis": {"system": "M. tuberculosis", "assay_type": "cell-based, Mycobacterium tuberculosis"}, "E. coli": {"system": "E. coli", "assay_type": "cell-based, Escherichia coli"}, "[1]": {"system": "methicillin resistant S. aureus IR2419", "assay_type": "cell-based, Staphylococcus aureus", "settings": "1 μg/ml, below the MIC value"}, "Vero cells": {"system": "Vero cells", "assay": "Toxicity to mammalian cell monolayers", "settings": "0.5 mg in 1 mL DMEM; 24 hrs"}, "MDCK cells": {"system": "MDCK cells", "assay": "Toxicity to mammalian cell monolayers", "settings": "0.5 mg in 1 mL DMEM; 24 hrs"}}, "note": "Read-outs that look alike come from different tables or passages of the source."}
{"smiles": "C=CC1=C(C)C2=Cc3c(C=C)c(C)c4[n]3[Ga][n]3c(c(C)c(CCC(=O)O)c3=CC3=NC(=C4)C(C)=C3CCC(=O)O)=CC1=N2", "note": "[Ga-PPIX, Gallium (III) protoporphyrin IX chloride]", "values": [{"measurement": "diameter (mm) of the inhibition zone", "setting": "S. marcescens; S. marcescens, disc ~50 μg MP", "result": 23, "unit": "mm"}, {"measurement": "sensitive strains / strains tested (inhibition zones larger or equal 20 mm)", "setting": "S. marcescens; Serratia marcescens, 50 μg disc", "result": "2/3"}, {"measurement": "diameter (mm) of the inhibition zone", "setting": "P. mirabills; P. mirabilis, disc ~50 μg MP", "result": 21, "unit": "mm"}, {"measurement": "sensitive strains / strains tested (inhibition zones larger or equal 20 mm)", "setting": "P. mirabills; Proteus mirabilis, 50 μg disc", "result": "2/2"}, {"measurement": "diameter (mm) of the inhibition zone", "setting": "E. aerogenes; E. aerogenes, disc ~50 μg MP", "result": 22, "unit": "mm"}, {"measurement": "sensitive strains / strains tested (inhibition zones larger or equal 20 mm)", "setting": "E. aerogenes; Enterobacter aerogenes, 50 μg disc", "result": "1/1"}, {"measurement": "diameter (mm) of the inhibition zone", "setting": "S. aureus; S. aureus, disc ~50 μg MP", "result": 22, "unit": "mm"}, {"measurement": "sensitive strains / strains tested (inhibition zones larger or equal 20 mm)", "setting": "S. aureus; Staphylococcus aureus, 50 μg disc", "result": "9/9"}, {"measurement": "diameter (mm) of the inhibition zone", "setting": "M tuber. H37Rv", "result": 20, "unit": "mm"}, {"measurement": "sensitive strains / strains tested (inhibition zones larger or equal 20 mm)", "setting": "Staphylococcus xylolus", "result": "1/1"}, {"measurement": "Minimal inhibitory concentration (MIC)", "setting": "Y. enterocolitica", "result": 0.4}, {"measurement": "antibacterial activity", "setting": "Y. enterocolitica", "result": "inhibitory"}, {"measurement": "sensitivity of hemR mutant", "setting": "Y. enterocolitica", "result": "resistant to relatively high concentrations"}, {"measurement": "sensitivity of hemT, hemU, hemV mutants", "setting": "Y. enterocolitica", "result": "fully sensitive"}, {"measurement": "MIC", "setting": "Y. enterocolitica; in µg/mL", "result": 0.4}, {"measurement": "lower MIC in low iron media", "setting": "M. smegmatis; LB+0.2 mM Desferal", "result": 2, "unit": "fold"}, {"measurement": "antibacterial activity", "setting": "M. smegmatis; M. smegmatis", "result": "inhibitory"}, {"measurement": "MIC", "setting": "M. smegmatis; M. smegmatis LR222 (Table 4)", "result": 0.5, "unit": "µg/mL"}, {"measurement": "Minimal inhibitory concentration (MIC)", "setting": "M. smegmatis; M. smegmatis LR222, LB + Tween 80 (Table 2)", "result": 0.4, "unit": "µg/mL"}, {"measurement": "MIC", "setting": "M. smegmatis; M. smegmatis LR222, dark (Table 10)", "result": 0.4, "unit": "µg/mL"}, {"measurement": "MIC", "setting": "Y. pseudotuberculosis; Y. pseudotuberculosis YP66 (Table 4)", "result": "< 0.1", "unit": "µg/mL"}, {"measurement": "MIC", "setting": "Y. pseudotuberculosis; Y. pseudotuberculosis YP66 (Table 6), in µg/mL", "result": "0.2-0.4"}, {"measurement": "MIC", "setting": "M. tuberculosis; M. tuberculosis Rv (Table 5)", "result": 4, "unit": "µg/mL"}, {"measurement": "sensitivity (preliminary experiments)", "setting": "M. tuberculosis; pathogenic M. tuberculosis", "result": "sensitive"}, {"measurement": "MIC", "setting": "E. coli; E. coli DH-5 alpha hemA (Table 6)", "result": "> 10", "unit": "µg/mL"}, {"measurement": "sensitivity", "setting": "E. coli; E. coli K-12 (hemPR+) wild type and hemA mutant, with delta-aminolevulinic acid", "result": "fully sensitive"}, {"measurement": "TonB dependence of inhibition", "setting": "E. coli; E. coli TonB mutant overexpressing HemR", "result": "TonB activity is necessary"}, {"measurement": "MIC", "setting": "E. coli; E. coli dh-5 alpha hemA(hemR+) (Table 6)", "result": "< 0.1", "unit": "µg/mL"}, {"measurement": "MIC Ga-PPIX", "setting": "E. coli; EC06 (MC1061, ΔccmABCDEFGH), NB", "result": "> 20", "unit": "µg/mL"}, {"measurement": "MIC Ga-PPIX", "setting": "E. coli; EC06 (MC1061, ΔccmABCDEFGH), NBD[50 μM]", "result": "> 20", "unit": "µg/mL"}, {"measurement": "MIC Ga-PPIX", "setting": "E. coli; GO103 (GR70N, ΔcydAB), NB", "result": 10, "unit": "µg/mL"}, {"measurement": "MIC Ga-PPIX", "setting": "E. coli; GO103 (GR70N, ΔcydAB), NBD[50 μM]", "result": 6.4, "unit": "µg/mL"}, {"measurement": "MIC Ga-PPIX", "setting": "E. coli; GP104 (GR70N, ΔcyoABCDE), NB", "result": 10, "unit": "µg/mL"}, {"measurement": "MIC Ga-PPIX", "setting": "E. coli; GP104 (GR70N, ΔcyoABCDE), NBD[50 μM]", "result": 10, "unit": "µg/mL"}, {"measurement": "MIC Ga-PPIX", "setting": "E. coli; GR70N w.t., NB", "result": 10, "unit": "µg/mL"}, {"measurement": "MIC Ga-PPIX", "setting": "E. coli; GR70N w.t., NBD[50 μM]", "result": 10, "unit": "µg/mL"}, {"measurement": "MIC Ga-PPIX", "setting": "E. coli; IR2885 (GO104 [phemR+]), NB", "result": "< 0.2", "unit": "µg/mL"}, {"measurement": "MIC Ga-PPIX", "setting": "E. coli; IR2885 (GO104 [phemR+]), NBD[50 μM]", "result": "< 0.02", "unit": "µg/mL"}, {"measurement": "MIC Ga-PPIX", "setting": "E. coli; IR2897 (GR70N [phemR+]), NB", "result": "> 10", "unit": "µg/mL"}, {"measurement": "MIC Ga-PPIX", "setting": "E. coli; IR2897 (GR70N [phemR+]), NBD[50 μM]", "result": "< 0.1", "unit": "µg/mL"}, {"measurement": "MIC Ga-PPIX", "setting": "E. coli; IR2898 (GO103 [phemR+]), NB", "result": "< 0.2", "unit": "µg/mL"}, {"measurement": "MIC Ga-PPIX", "setting": "E. coli; IR2898 (GO103 [phemR+]), NBD[50 μM]", "result": "< 0.02", "unit": "µg/mL"}, {"measurement": "MIC Ga-PPIX", "setting": "E. coli; IR2899 (MWC215 [phemR+]), NB", "result": "> 10", "unit": "µg/mL"}, {"measurement": "MIC Ga-PPIX", "setting": "E. coli; IR2899 (MWC215 [phemR+]), NBD[50 μM]", "result": "< 0.1", "unit": "µg/mL"}, {"measurement": "MIC Ga-PPIX", "setting": "E. coli; IR2976 (EC06 [phemR+]), NB", "result": "> 30", "unit": "µg/mL"}, {"measurement": "MIC Ga-PPIX", "setting": "E. coli; IR2976 (EC06 [phemR+]), NBD[50 μM]", "result": 0.5, "unit": "µg/mL"}, {"measurement": "MIC Ga-PPIX", "setting": "E. coli; MWC215 (GR70N, ndh), NB", "result": 10, "unit": "µg/mL"}, {"measurement": "MIC Ga-PPIX", "setting": "E. coli; MWC215 (GR70N, ndh), NBD[50 μM]", "result": 10, "unit": "µg/mL"}, {"measurement": "higher MIC under iron-sufficient growth conditions", "setting": "E. coli; all other mutants", "result": 50, "unit": "fold"}, {"measurement": "sensitivity without an iron chelator", "setting": "E. coli; cytochrome cd and cyo single mutants", "result": "still sensitive"}, {"measurement": "sensitivity concentration of HemR-plasmid strains", "setting": "E. coli; slight iron restriction (0.05 mM dipyridyl)", "result": "less than 0.5 μg/ml"}, {"measurement": "growth in presence of Ga-PPIX", "setting": "[1]", "result": "inhibited growth of S. aureus in the first 20 hours of growth"}, {"measurement": "sensitivity (preliminary experiments)", "setting": "M. avium; M. avium", "result": "sensitive"}, {"measurement": "MIC", "setting": "M. avium; M. avium ATCC15769 (Table 5)", "result": 1, "unit": "µg/mL"}, {"measurement": "cytotoxic and/or morphological changes", "setting": "Vero cells", "result": "No visible cytotoxic and/or morphological changes were observed"}, {"measurement": "cytotoxic and/or morphological changes", "setting": "MDCK cells", "result": "No visible cytotoxic and/or morphological changes were observed"}]}
